pIC50: −log10 of the molar value.
Target: T1, Caspase-3 (Homo sapiens, UniProt P42574)
T1 sequence (P42574 whole entry): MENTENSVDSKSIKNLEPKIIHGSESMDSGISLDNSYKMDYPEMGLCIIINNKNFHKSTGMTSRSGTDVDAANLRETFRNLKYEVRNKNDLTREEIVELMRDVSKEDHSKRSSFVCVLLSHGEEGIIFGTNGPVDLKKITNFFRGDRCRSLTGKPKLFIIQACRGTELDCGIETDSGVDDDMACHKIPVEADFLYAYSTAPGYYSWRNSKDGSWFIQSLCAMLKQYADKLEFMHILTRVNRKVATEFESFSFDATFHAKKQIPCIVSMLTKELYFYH
Assay: Inhibition of caspase 3 using Ac-DEVD-AFC fluorogenic substrate

SMILES | pIC50
O=C1C(=O)N(Cc2cn(CCF)nn2)c2ccc(S(=O)(=O)N3CCC[C@H]3COc3ccccc3)cc21 | 7.78
O=C1C(=O)N(Cc2cn(CCF)nn2)c2ccc(S(=O)(=O)N3CCC[C@H]3COc3ccc(F)cc3F)cc21 | 9.30
O=C1Nc2ccc([N+](=O)[O-])cc2C1=O [5-NITROISATIN] | 6.00

Reference: ChEMBL document CHEMBL1681737, “Isatin 1,2,3-triazoles as potent inhibitors against caspase-3” (Bioorg Med Chem Lett, 2011)
